In PubChem BioAssay (NCI):
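At the GI50, growth is halved. The concentration for full growth arrest is given as TGI.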

Assays:
Experiment in all cases: DTP human tumour cell line panel, 384-well format
NCI/ADR-RES ovarian = test system: NCI/ADR-RES ovarian
HCC-2998 colon = test system: HCC-2998 colon
MALME-3M melanoma = test system: MALME-3M melanoma
SF-295 CNS = test system: SF-295 CNS
A549 NSCLC = test system: A549 NSCLC
K-562 leukemia = test system: K-562 leukemia
MDA-MB-468 breast = test system: MDA-MB-468 breast
NCI-H522 lung = test system: NCI-H522 lung
PC-3 prostate = test system: PC-3 prostate
EKVX NSCLC = test system: EKVX NSCLC
SF-268 CNS = test system: SF-268 CNS
SNB-19 CNS = test system: SNB-19 CNS
SK-MEL-28 melanoma = test system: SK-MEL-28 melanoma
BT-549 breast = test system: BT-549 breast
M14 melanoma = test system: M14 melanoma
786-0 renal = test system: 786-0 renal
NCI-H460 NSCLC = test system: NCI-H460 NSCLC
SK-OV-3 ovarian = test system: SK-OV-3 ovarian
KM12 colon = test system: KM12 colon
DU-145 prostate = test system: DU-145 prostate
HS 578T breast = test system: HS 578T breast
UO-31 renal = test system: UO-31 renal
HCT-15 colon = test system: HCT-15 colon
HOP-62 NSCLC = test system: HOP-62 NSCLC
HOP-92 NSCLC = test system: HOP-92 NSCLC
NCI-H23 lung = test system: NCI-H23 lung
MDA-MB-231 breast = test system: MDA-MB-231 breast
SK-MEL-5 melanoma = test system: SK-MEL-5 melanoma
SNB-75 CNS = test system: SNB-75 CNS
OVCAR-5 ovarian = test system: OVCAR-5 ovarian
RPMI-8226 leukemia = test system: RPMI-8226 leukemia
MCF7 breast = test system: MCF7 breast
SR leukemia = test system: SR leukemia
CCRF-CEM leukemia = test system: CCRF-CEM leukemia
MOLT-4 leukemia = test system: MOLT-4 leukemia
HL-60(TB) leukemia = test system: HL-60(TB) leukemia
A498 renal = test system: A498 renal
LOX IMVI melanoma = test system: LOX IMVI melanoma
IGROV1 ovarian = test system: IGROV1 ovarian
NCI-H322M lung = test system: NCI-H322M lung
HT29 colon = test system: HT29 colon
TK-10 renal = test system: TK-10 renal
T-47D breast = test system: T-47D breast
OVCAR-4 ovarian = test system: OVCAR-4 ovarian
UACC-257 melanoma = test system: UACC-257 melanoma
NCI-H226 lung = test system: NCI-H226 lung
U251 glioblastoma = test system: U251 glioblastoma
ACHN renal = test system: ACHN renal
OVCAR-8 ovarian = test system: OVCAR-8 ovarian
OVCAR-3 ovarian = test system: OVCAR-3 ovarian
SN12C renal = test system: SN12C renal
RXF 393 renal = test system: RXF 393 renal
UACC-62 melanoma = test system: UACC-62 melanoma
MDA-MB-435 melanoma = test system: MDA-MB-435 melanoma
COLO 205 colon = test system: COLO 205 colon
SF-539 CNS = test system: SF-539 CNS
CAKI-1 renal = test system: CAKI-1 renal
SW-620 colon = test system: SW-620 colon

Q: For CNS(=O)(=O)Nc1nccc(Cc2c(C)c3ccc(Oc4ncccn4)cc3oc2=O)c1F, which GI50 (NCI/ADR-RES ovarian) is on record?
A: 15.2 µM

Q: What about the TGI (NCI/ADR-RES ovarian) of the same molecule?
A: > 100 µM

Q: And the GI50 (HCC-2998 colon)?
A: 0.0142 µM

Q: What about the TGI (HCC-2998 colon) of the same molecule?
A: 0.398 µM

Q: And the GI50 (MALME-3M melanoma)?
A: < 0.01 µM

Q: What about the TGI (MALME-3M melanoma) of the same molecule?
A: 0.0124 µM

Q: And the GI50 (SF-295 CNS)?
A: 68.6 µM

Q: And the TGI (SF-295 CNS)?
A: > 100 µM

Q: What about the GI50 (A549 NSCLC) of the same molecule?
A: 0.42 µM

Q: And the TGI (A549 NSCLC)?
A: > 100 µM

Q: What about the GI50 (K-562 leukemia) of the same molecule?
A: 0.433 µM

Q: And the TGI (K-562 leukemia)?
A: > 100 µM

Q: And the GI50 (MDA-MB-468 breast)?
A: 1.75 µM

Q: And the TGI (MDA-MB-468 breast)?
A: 5.95 µM

Q: And the GI50 (NCI-H522 lung)?
A: 12.5 µM

Q: And the TGI (NCI-H522 lung)?
A: > 100 µM

Q: And the GI50 (PC-3 prostate)?
A: > 100 µM

Q: And the TGI (PC-3 prostate)?
A: > 100 µM

Q: And the GI50 (EKVX NSCLC)?
A: 6.39 µM

Q: What about the TGI (EKVX NSCLC) of the same molecule?
A: > 100 µM

Q: And the GI50 (SF-268 CNS)?
A: > 100 µM

Q: And the TGI (SF-268 CNS)?
A: > 100 µM

Q: And the GI50 (SNB-19 CNS)?
A: 20.9 µM

Q: What about the TGI (SNB-19 CNS) of the same molecule?
A: > 100 µM

Q: And the GI50 (SK-MEL-28 melanoma)?
A: 0.0137 µM

Q: What about the TGI (SK-MEL-28 melanoma) of the same molecule?
A: 0.0616 µM

Q: What about the GI50 (BT-549 breast) of the same molecule?
A: 39.6 µM

Q: And the TGI (BT-549 breast)?
A: > 100 µM

Q: And the GI50 (M14 melanoma)?
A: < 0.01 µM

Q: And the TGI (M14 melanoma)?
A: 0.102 µM

Q: And the GI50 ([…]-0 renal)?
A: 98.4 µM

Q: And the TGI (786-0 renal)?
A: > 100 µM

Q: What about the GI50 (NCI-H460 NSCLC) of the same molecule?
A: 10.2 µM

Q: What about the TGI (NCI-H460 NSCLC) of the same molecule?
A: > 100 µM

Q: What about the GI50 (SK-OV-3 ovarian) of the same molecule?
A: 21.4 µM

Q: What about the TGI (SK-OV-3 ovarian) of the same molecule?
A: > 100 µM

Q: And the GI50 (KM12 colon)?
A: 0.181 µM

Q: What about the TGI (KM12 colon) of the same molecule?
A: > 100 µM

Q: And the GI50 (DU-145 prostate)?
A: 26.4 µM

Q: And the TGI (DU-145 prostate)?
A: > 100 µM

Q: And the GI50 (HS 578T breast)?
A: 7.8 µM

Q: What about the TGI (HS 578T breast) of the same molecule?
A: > 100 µM

Q: What about the GI50 (UO-31 renal) of the same molecule?
A: 14 µM

Q: And the TGI (UO-31 renal)?
A: > 100 µM

Q: What about the GI50 (HCT-15 colon) of the same molecule?
A: 4.39 µM

Q: And the TGI (HCT-15 colon)?
A: > 100 µM

Q: And the GI50 (HOP-62 NSCLC)?
A: 0.289 µM

Q: And the TGI (HOP-62 NSCLC)?
A: > 100 µM

Q: And the GI50 (HOP-92 NSCLC)?
A: 0.236 µM

Q: What about the TGI (HOP-92 NSCLC) of the same molecule?
A: 3.93 µM

Q: What about the GI50 (NCI-H23 lung) of the same molecule?
A: 0.0459 µM

Q: What about the TGI (NCI-H23 lung) of the same molecule?
A: 2.54 µM

Q: And the GI50 (MDA-MB-231 breast)?
A: 0.0731 µM

Q: What about the TGI (MDA-MB-231 breast) of the same molecule?
A: 43.8 µM

Q: What about the GI50 (SK-MEL-5 melanoma) of the same molecule?
A: 0.048 µM

Q: And the TGI (SK-MEL-5 melanoma)?
A: 9.68 µM

Q: And the GI50 (SNB-75 CNS)?
A: > 100 µM

Q: And the TGI (SNB-75 CNS)?
A: > 100 µM

Q: What about the GI50 (OVCAR-5 ovarian) of the same molecule?
A: 0.041 µM

Q: And the TGI (OVCAR-5 ovarian)?
A: > 100 µM

Q: What about the GI50 (RPMI-8226 leukemia) of the same molecule?
A: 0.0415 µM

Q: And the TGI (RPMI-8226 leukemia)?
A: 20.5 µM

Q: And the GI50 (MCF7 breast)?
A: > 100 µM

Q: What about the TGI (MCF7 breast) of the same molecule?
A: > 100 µM

Q: And the GI50 (SR leukemia)?
A: 2.92 µM

Q: And the TGI (SR leukemia)?
A: 40.9 µM

Q: And the GI50 (CCRF-CEM leukemia)?
A: 5.06 µM

Q: And the TGI (CCRF-CEM leukemia)?
A: 49.1 µM

Q: What about the GI50 (MOLT-4 leukemia) of the same molecule?
A: 13 µM

Q: And the TGI (MOLT-4 leukemia)?
A: 82.7 µM

Q: What about the GI50 (HL-60(TB) leukemia) of the same molecule?
A: < 0.01 µM

Q: What about the TGI (HL-60(TB) leukemia) of the same molecule?
A: > 100 µM

Q: And the GI50 (A498 renal)?
A: 13.3 µM

Q: And the TGI (A498 renal)?
A: > 100 µM

Q: And the GI50 (LOX IMVI melanoma)?
A: 0.164 µM

Q: And the TGI (LOX IMVI melanoma)?
A: 5.49 µM

Q: What about the GI50 (IGROV1 ovarian) of the same molecule?
A: 0.29 µM

Q: What about the TGI (IGROV1 ovarian) of the same molecule?
A: > 100 µM

Q: What about the GI50 (NCI-H322M lung) of the same molecule?
A: 0.549 µM

Q: What about the TGI (NCI-H322M lung) of the same molecule?
A: > 100 µM

Q: What about the GI50 (HT29 colon) of the same molecule?
A: 0.0418 µM

Q: What about the TGI (HT29 colon) of the same molecule?
A: > 100 µM

Q: What about the GI50 (TK-10 renal) of the same molecule?
A: 7.49 µM

Q: And the TGI (TK-10 renal)?
A: > 100 µM

Q: And the GI50 (T-47D breast)?
A: 3.67 µM

Q: What about the TGI (T-47D breast) of the same molecule?
A: 83.3 µM

Q: And the GI50 (OVCAR-4 ovarian)?
A: 0.413 µM

Q: And the TGI (OVCAR-4 ovarian)?
A: > 100 µM

Q: And the GI50 (UACC-257 melanoma)?
A: 0.012 µM

Q: And the TGI (UACC-257 melanoma)?
A: 0.0529 µM

Q: And the GI50 (NCI-H226 lung)?
A: 0.848 µM

Q: And the TGI (NCI-H226 lung)?
A: > 100 µM

Q: What about the GI50 (U251 glioblastoma) of the same molecule?
A: 5.57 µM

Q: What about the TGI (U251 glioblastoma) of the same molecule?
A: > 100 µM

Q: What about the GI50 (ACHN renal) of the same molecule?
A: 4.16 µM

Q: And the TGI (ACHN renal)?
A: > 100 µM

Q: What about the GI50 (OVCAR-8 ovarian) of the same molecule?
A: 39.2 µM

Q: And the TGI (OVCAR-8 ovarian)?
A: > 100 µM

Q: What about the GI50 (OVCAR-3 ovarian) of the same molecule?
A: > 100 µM

Q: And the TGI (OVCAR-3 ovarian)?
A: > 100 µM

Q: What about the GI50 (SN12C renal) of the same molecule?
A: 0.0724 µM

Q: And the TGI (SN12C renal)?
A: > 100 µM

Q: What about the GI50 (RXF 393 renal) of the same molecule?
A: 4.82 µM

Q: And the TGI (RXF 393 renal)?
A: > 100 µM

Q: And the GI50 (UACC-62 melanoma)?
A: 0.012 µM

Q: And the TGI (UACC-62 melanoma)?
A: 0.138 µM

Q: What about the GI50 (MDA-MB-435 melanoma) of the same molecule?
A: 0.0305 µM

Q: What about the TGI (MDA-MB-435 melanoma) of the same molecule?
A: > 100 µM

Q: What about the GI50 (COLO 205 colon) of the same molecule?
A: 0.0151 µM

Q: And the TGI (COLO 205 colon)?
A: 0.586 µM

Q: And the GI50 (SF-539 CNS)?
A: 12.9 µM

Q: What about the TGI (SF-539 CNS) of the same molecule?
A: > 100 µM

Q: And the GI50 (CAKI-1 renal)?
A: 0.319 µM

Q: What about the TGI (CAKI-1 renal) of the same molecule?
A: > 100 µM

Q: And the GI50 (SW-620 colon)?
A: 0.0167 µM

Q: What about the TGI (SW-620 colon) of the same molecule?
A: > 100 µM
